Laboratory results as given in patent US20240416143A1, “PHOTONIC ANTIMICROBIAL WOUND SURFACE DRESSING” (The General Hospital Corporation, priority 2021, published 2024).

Assays:
Assay in all cases: Photoinactivation of 48-hour in vitro biofilms by adjuvant/antibiotic + antimicrobial blue light
[1] = tested on: MRSA biofilm; assay type: cell-based, methicillin-resistant Staphylococcus aureus; conditions: 48 h biofilm; aBL 405 nm, 50-250 J/cm^2
Experimental: (§1) The bacterial suspension was grown in a shaking incubator overnight in BHI broth. Cells were collected by centrifugation at 4,000 rpm for 5 minutes and suspended in PBS at a density of 10^6 CFU/mL. Then, the biofilms were grown for 48 hours (unless otherwise specified) in 96-well microtiter plates as described previously [Ref. 27], with a renewal of the media every 24 hours. Following the 48-hour biofilm growth, fresh 200 μL of PBS with or without menadione in different concentrations were added to the wells and the biofilms were incubated in the dark at 25° C. for 1 hour: 0, 0.5, 1, and 2 μg/mL for MRSA USA300, AF0001, IQ0064; 0, 1, 10, 30 and 50 μg/mL for P. aeruginosa PA01; and 0, 100, and 150 μg/mL for E. coli ATCC 25922. After that, the control and the menadione-treated biofilms were maintained without irradiation (“menadione/dark”). Simultaneously, the aBL was delivered to the other biofilm groups testing different power densities (50, 30, 15, and 10 mW/cm^2) while keeping the same radiant exposure of 250 J/cm^2. After the light exposure, the biofilms were carefully washed two times with PBS and 200 μL of PBS was added to each well. Then, the bacterial biofilms in each well were harvested by scratching with a sterile pipette tip and three wells of each group were pooled together in a 1.5 mL microcentrifuge tube. The total volume obtained, 600 μL (3 wells), was sonicated using a Branson 2510 Water Bath Sonicator (Marshall Scientific, LLC) for 5 minutes and the CFU was determined by 10-fold serial dilutions in PBS on BHI agar plates. CFU was counted after overnight incubation at 37° C. Experiments were performed in triplicate.
A bacterial suspension was grown in a shaking incubator overnight in BHI broth. Cells were collected by centrifugation at 4,000 rpm for 5 minutes and suspended in PBS at a density of 10^6 CFU/mL. Then, the biofilms were grown for 48 hours in 96-well microtiter plates with a renewal of the media every 24 hours. Following the 48-hour biofilm growth, fresh 200 μL of PBS with the tetracyclines minocycline, doxycycline, and demeclocycline in different concentrations were added to the wells and the biofilms were incubated in the dark at 25° C. for 1 hour: 0, 0.25, 0.5, and 1 μg/mL for minocycline; 0, 0.5, 1, and 2 μg/mL for doxycycline; and 0, 0.5, 1, and 2 for demeclocycline. After that, the control and the tetracycline-treated biofilms were maintained without irradiation (“menadione/dark”). Simultaneously, the aBL (405 nm) was delivered to the other biofilm groups testing different power densities (50, 30 mW/cm^2) while keeping the radiant exposures of 50-250 J/cm^2. After the light exposure, the biofilms were carefully washed two times with PBS and 200 μL of PBS was added to each well. Then, the bacterial biofilms in each well were harvested by scratching with a sterile pipette tip and three wells of each group were pooled together in a 1.5 mL microcentrifuge tube. The total volume obtained, 600 μL (3 wells), was sonicated using a Branson 2510 Water Bath Sonicator (Marshall Scientific, LLC) for 5 minutes and the CFU/mL was determined by 10-fold serial dilutions in PBS on BHI agar plates. CFU was counted after overnight incubation at 37° C.

[2] = tested on: P. aeruginosa biofilm; assay type: cell-based, Pseudomonas aeruginosa; conditions: 48 h biofilm; aBL 405 nm, 50-250 J/cm^2
Experimental: The bacterial suspension was grown in a shaking incubator overnight in BHI broth. Cells were collected by centrifugation at 4,000 rpm for 5 minutes and suspended in PBS at a density of 10^6 CFU/mL. Then, the biofilms were grown for 48 hours (unless otherwise specified) in 96-well microtiter plates as described previously [Ref. 27], with a renewal of the media every 24 hours. Following the 48-hour biofilm growth, fresh 200 μL of PBS with or without menadione in different concentrations were added to the wells and the biofilms were incubated in the dark at 25° C. for 1 hour: 0, 0.5, 1, and 2 μg/mL for MRSA USA300, AF0001, IQ0064; […]; and 0, 100, and 150 μg/mL for E. coli ATCC 25922. After that, the control and the menadione-treated biofilms were maintained without irradiation (“menadione/dark”). Simultaneously, the aBL was delivered to the other biofilm groups testing different power densities (50, 30, 15, and 10 mW/cm^2) while keeping the same radiant exposure of 250 J/cm^2. After the light exposure, the biofilms were carefully washed two times with PBS and 200 μL of PBS was added to each well. Then, the bacterial biofilms in each well were harvested by scratching with a sterile pipette tip and three wells of each group were pooled together in a 1.5 mL microcentrifuge tube. The total volume obtained, 600 μL (3 wells), was sonicated using a Branson 2510 Water Bath Sonicator (Marshall Scientific, LLC) for 5 minutes and the CFU was determined by 10-fold serial dilutions in PBS on BHI agar plates. CFU was counted after overnight incubation at 37° C. Experiments were performed in triplicate.
(§2) A bacterial suspension was grown in a shaking incubator overnight in BHI broth. Cells were collected by centrifugation at 4,000 rpm for 5 minutes and suspended in PBS at a density of 10^6 CFU/mL. Then, the biofilms were grown for 48 hours in 96-well microtiter plates with a renewal of the media every 24 hours. Following the 48-hour biofilm growth, fresh 200 μL of PBS with the tetracyclines minocycline, doxycycline, and demeclocycline in different concentrations were added to the wells and the biofilms were incubated in the dark at 25° C. for 1 hour: 0, 0.25, 0.5, and 1 μg/mL for minocycline; 0, 0.5, 1, and 2 μg/mL for doxycycline; and 0, 0.5, 1, and 2 for demeclocycline. After that, the control and the tetracycline-treated biofilms were maintained without irradiation (“menadione/dark”). […] The total volume obtained, 600 μL (3 wells), was sonicated using a Branson 2510 Water Bath Sonicator (Marshall Scientific, LLC) for 5 minutes and the CFU/mL was determined by 10-fold serial dilutions in PBS on BHI agar plates. CFU was counted after overnight incubation at 37° C.

[3] = tested on: E. coli biofilm; assay type: cell-based, Escherichia coli; conditions: 48 h biofilm; aBL 405 nm, 50-250 J/cm^2
Experimental: as §1, §2

[4] = tested on: MRSA biofilm; assay type: cell-based, methicillin-resistant Staphylococcus aureus; conditions: 48 h biofilm

SMILES	antimicrobial effect of aBL combined with tetracycline [1]	antimicrobial effect of aBL combined with tetracycline [2]	antimicrobial effect of aBL combined with tetracycline [3]	killing in biofilm by vancomycin combined with aBL ([4]; vancomycin 500 μg/mL + aBL 50 mW/cm^2, 250 J/cm^2)	effect on biofilms of vancomycin combined with aBL ([4]; vancomycin 1 mg/mL)	improvement of aBL antimicrobial effect by vancomycin ([4]; vancomycin 5, 15 and 50 μg/mL + aBL 250 J/cm^2)
CN(C)[C@@H]1C(O)=C(C(N)=O)C(=O)[C@@]2(O)C(O)=C3C(=O)c4c(O)ccc(Cl)c4[C@@H](O)[C@H]3C[C@@H]12 [demeclocycline]	enhancement in antimicrobial effects	enhancement in antimicrobial effects	enhancement in antimicrobial effects	–	–	–
CN[C@H](CC(C)C)C(=O)N[C@H]1C(=O)N[C@@H](CC(N)=O)C(=O)N[C@H]2C(=O)N[C@H]3C(=O)N[C@H](C(=O)N[C@H](C(=O)O)c4cc(O)cc(O)c4-c4cc3ccc4O)[C@H](O)c3ccc(c(Cl)c3)Oc3cc2cc(c3O[C@@H]2O[C@H](CO)[C@@H](O)[C@H](O)[C@H]2O[C@H]2C[C@](C)(N)[C@H](O)[C@H](C)O2)Oc2ccc(cc2Cl)[C@H]1O [vancomycin]	–	–	–	2.65 log10 CFU/mL	only minimal effects	did not show any improvement
